Where “and” joins values, the source holds several entries; their conditions need not be identical. Equal entries are not always repeated.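 How tested: cells in 96-well plates exposed to compound for 48 hours at five concentrations. GI50: concentration for 50% inhibition of growth. TGI denotes the concentration required for complete inhibition of growth.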
How the values were obtained:
Experiment in all cases: growth of human tumour cells (NCI), 48 h
NCI-H226 lung = system: NCI-H226 lung
CAKI-1 renal = system: CAKI-1 renal
SNB-75 CNS = system: SNB-75 CNS
SN12C renal = system: SN12C renal
SF-295 CNS = system: SF-295 CNS
SW-620 colon = system: SW-620 colon
OVCAR-5 ovarian = system: OVCAR-5 ovarian
HCT-15 colon = system: HCT-15 colon
MCF7 breast = system: MCF7 breast
BT-549 breast = system: BT-549 breast

| SMILES | TGI (NCI-H226 lung) | TGI (CAKI-1 renal) | TGI (SNB-75 CNS) | TGI (SN12C renal) | TGI (SF-295 CNS) | TGI (SW-620 colon) | TGI (OVCAR-5 ovarian) | TGI (HCT-15 colon) | GI50 (NCI-H226 lung) | TGI (MCF7 breast) | GI50 (HCT-15 colon) | GI50 (CAKI-1 renal) | GI50 (SNB-75 CNS) | GI50 (SN12C renal) | GI50 (SF-295 CNS) | GI50 (SW-620 colon) | GI50 (BT-549 breast) | TGI (BT-549 breast) | GI50 (OVCAR-5 ovarian) | GI50 (MCF7 breast) |
| --- | --- | --- | --- | --- | --- | --- | --- | --- | --- | --- | --- | --- | --- | --- | --- | --- | --- | --- | --- | --- |
| CN(C)CCN(C)CC1COC(C)(C)O1 (stereo not given) | > 100 µM | > 100 µM | > 100 µM | > 100 µM | > 100 µM | > 100 µM | > 100 µM |  |  |  |  |  |  |  |  |  |  |  |  |  |
| Cc1oc2c(C)c3oc(=O)cc(C)c3cc2c1CNC(=O)[C@@H]1OCCOCCOCCOCCOCCOC1C(=O)O (stereo not given in full) | > 100 µM | > 100 µM | > 100 µM | > 100 µM | > 100 µM | > 100 µM | > 100 µM | > 100 µM |  |  |  |  |  |  |  |  |  |  |  |  |
| CCOC(=O)c1c(-c2ccccc2)oc(-c2ccccc2)c1C(=O)OCC | > 100 µM |  | > 100 µM | > 100 µM | > 100 µM | > 100 µM | > 100 µM |  |  |  |  |  |  |  |  |  |  |  |  |  |
| CCCCCCCC(=O)NCC(O)CNC(=O)CCCCCCC | > 100 µM | > 100 µM | > 100 µM | > 100 µM | > 100 µM | > 100 µM | > 100 µM | > 100 µM |  |  |  |  |  |  |  |  |  |  |  |  |
| CC(=O)O[C@@]12CO[C@@H]1C[C@H](O)[C@@]1(C)C(=O)[C@H](O)C3=C(C)[C@@H](OC(=O)[C@H](O)[C@@H](NC(=O)OC(C)(C)C)c4ccccc4)C[C@@](O)([C@@H](OC(=O)c4ccccc4)[C@H]21)C3(C)C | 43.4 µM | 81.8 µM | 0.0637 µM | > 68.3 µM | 0.133 µM | > 68.4 µM |  | 17.1 µM | 0.00366 µM | 78.4 µM | 0.0656 µM | 0.146 µM | 0.0187 µM and 0.0127 µM | 0.0224 µM and 0.00869 µM | 0.0123 µM and 0.0146 µM | 0.00764 µM and 0.00646 µM |  |  |  |  |
| O=c1cc(-c2ccccc2)oc2cc(O)c(O)c(O)c12 | 58 µM | 19 µM | > 100 µM | 26 µM | 46.4 µM | > 100 µM | 88.5 µM | 58.8 µM | 19.3 µM |  | 8.25 µM | 4.57 µM | > 100 µM | 8.8 µM | 11.7 µM | 17.8 µM | 13.6 µM | 87.5 µM | 30 µM |  |
| O=C1C2C(C(=O)[N]1[Hg][c]1cccs1)C1(Cl)C(Cl)=C(Cl)C2(Cl)C1(Cl)Cl (stereo not given) | 37.8 µM | 2.64 µM | 4.81 µM |  | 8.53 µM | 3.08 µM | 3.61 µM | 2.27 µM | 6.88 µM | 1.94 µM | 0.821 µM | 1.29 µM | 1.37 µM |  | 3.11 µM | 1.02 µM | 0.984 µM | 2.24 µM | 1.85 µM | 0.386 µM |
| CCOC(=O)N1C2C=C(C)C(ON2C(=O)c2ccccc2)C2C(C)C(=O)N21 (stereo not given) | > 100 µM |  | > 100 µM | > 100 µM | > 100 µM | > 100 µM | > 100 µM | > 100 µM |  |  |  |  |  |  |  |  |  |  |  |  |
| CC(=O)N1c2ccccc2C2=CC3C4C(=O)N(c5ccccc5)C(=O)C4C21C1C(=O)N(c2ccccc2)C(=O)C31 (stereo not given) |  | > 100 µM | > 100 µM | > 100 µM | 39.1 µM | > 100 µM | > 100 µM | > 100 µM |  |  |  |  |  |  |  |  |  |  |  |  |
| CCN1/C(=C/C=C/c2n(-c3ccccc3)c3ccc(-c4nc5ccccc5s4)cc3[n+]2CC)N(c2ccccc2)c2ccc(-c3nc4ccccc4s3)cc21 | 15.6 µM |  | > 46.7 µM | 2.44 µM |  | > 50 µM | > 50 µM | > 50 µM | 0.317 µM | > 50 µM | 1 µM |  | 0.347 µM | 0.175 µM |  | 0.445 µM | 0.5 µM | 3.28 µM | 1.53 µM | 0.426 µM |
| Cn1c2c(c3ccccc31)CCN(CCN1CCN(c3ccccc3)CC1)C2=O |  | > 100 µM |  | > 100 µM | > 100 µM | > 100 µM |  | > 100 µM |  |  |  |  |  |  |  |  |  |  |  |  |
| COc1cc2c(cc1OCCCCCOc1cc3c(cc1OC)C(=O)N1CC(F)C[C@H]1C=N3)N=C[C@@H]1CC(F)CN1C2=O (stereo not given in full) |  | 0.411 µM | > 100 µM | 0.952 µM | 0.694 µM | 0.452 µM | 3.25 µM | 3.72 µM |  | 1.31 µM | 1.11 µM | < 0.01 µM | 0.0488 µM | < 0.0427 µM | < 0.0148 µM | 0.0701 µM | 0.0939 µM | 0.721 µM | 0.117 µM | < 0.0108 µM |
| Cc1noc2cccc(OCc3ccccc3)c12 | > 100 µM | > 100 µM | 87.6 µM | > 100 µM | > 100 µM | > 100 µM | > 100 µM | > 100 µM |  |  |  |  |  |  |  |  |  |  |  |  |
| O=C(O)C1=CCCc2ccc3ccccc3c21 | > 100 µM |  | > 100 µM | > 100 µM | > 100 µM | > 100 µM | > 100 µM | > 100 µM |  |  |  |  |  |  |  |  |  |  |  |  |
| [Cl][Sn]([Cl])([c]1ccccc1)[c]1ccccc1 | 32.2 µM | 6.52 µM | 22.9 µM | 28.2 µM | 33.5 µM | 10.2 µM | 29.3 µM | 23.2 µM | 17.7 µM |  | 10.3 µM | 2.29 µM | 10.8 µM | 14.9 µM | 17 µM | 3.02 µM |  |  | 15.8 µM |  |
| NC(=O)C#CC#CC#CCO | 27.5 µM |  |  | 3.76 µM | 11.6 µM | 3.33 µM | 33.1 µM | 3.5 µM |  |  |  |  |  |  |  |  |  |  |  |  |
| N#C/C(=N\Nc1ccc(Cl)cc1)C(=O)Nc1cc(-c2ccccc2)nn1-c1ccccc1 |  |  |  | > 100 µM | > 100 µM | > 100 µM | > 100 µM | > 100 µM |  |  | 2.14 µM |  |  | 2.44 µM | 2.86 µM | 3.11 µM | 2.52 µM | 7.18 µM | 3 µM |  |
| C#CCN(Cc1nc2cc(C(F)(F)F)ccc2nc1-c1ccccc1)c1ccc(OC(F)(F)F)cc1 |  | > 100 µM | > 100 µM | > 100 µM | > 100 µM | > 100 µM | > 100 µM | > 100 µM |  | > 100 µM | > 100 µM | 62 µM | > 100 µM | 38.2 µM | > 100 µM | 40.9 µM | 44.9 µM | > 100 µM | > 100 µM | 32 µM |
| N#CC(C(=O)/C(=N/NC(=O)c1ccccc1O)C(C#N)c1ccccc1)c1ccccc1 (stereo not given) | > 100 µM |  | > 100 µM | > 100 µM | > 100 µM |  |  | > 100 µM |  |  |  |  |  |  |  |  |  |  |  |  |
